{
  "source": "patent US7964399B2",
  "about": "“Cell line comprising vector encoding truncated FLK-1 receptor” (Max-Planck-Gesellschaft zur Forderung der Wissenschaften …, priority 1992, dated 2011)",
  "key": {"[1]": {"biological_target": "T1, Flk-1 (Mus musculus, UniProt P35918, P25T)", "T1 sequence (P35918 with tags, fused parts or gaps P25T limits assumed)": "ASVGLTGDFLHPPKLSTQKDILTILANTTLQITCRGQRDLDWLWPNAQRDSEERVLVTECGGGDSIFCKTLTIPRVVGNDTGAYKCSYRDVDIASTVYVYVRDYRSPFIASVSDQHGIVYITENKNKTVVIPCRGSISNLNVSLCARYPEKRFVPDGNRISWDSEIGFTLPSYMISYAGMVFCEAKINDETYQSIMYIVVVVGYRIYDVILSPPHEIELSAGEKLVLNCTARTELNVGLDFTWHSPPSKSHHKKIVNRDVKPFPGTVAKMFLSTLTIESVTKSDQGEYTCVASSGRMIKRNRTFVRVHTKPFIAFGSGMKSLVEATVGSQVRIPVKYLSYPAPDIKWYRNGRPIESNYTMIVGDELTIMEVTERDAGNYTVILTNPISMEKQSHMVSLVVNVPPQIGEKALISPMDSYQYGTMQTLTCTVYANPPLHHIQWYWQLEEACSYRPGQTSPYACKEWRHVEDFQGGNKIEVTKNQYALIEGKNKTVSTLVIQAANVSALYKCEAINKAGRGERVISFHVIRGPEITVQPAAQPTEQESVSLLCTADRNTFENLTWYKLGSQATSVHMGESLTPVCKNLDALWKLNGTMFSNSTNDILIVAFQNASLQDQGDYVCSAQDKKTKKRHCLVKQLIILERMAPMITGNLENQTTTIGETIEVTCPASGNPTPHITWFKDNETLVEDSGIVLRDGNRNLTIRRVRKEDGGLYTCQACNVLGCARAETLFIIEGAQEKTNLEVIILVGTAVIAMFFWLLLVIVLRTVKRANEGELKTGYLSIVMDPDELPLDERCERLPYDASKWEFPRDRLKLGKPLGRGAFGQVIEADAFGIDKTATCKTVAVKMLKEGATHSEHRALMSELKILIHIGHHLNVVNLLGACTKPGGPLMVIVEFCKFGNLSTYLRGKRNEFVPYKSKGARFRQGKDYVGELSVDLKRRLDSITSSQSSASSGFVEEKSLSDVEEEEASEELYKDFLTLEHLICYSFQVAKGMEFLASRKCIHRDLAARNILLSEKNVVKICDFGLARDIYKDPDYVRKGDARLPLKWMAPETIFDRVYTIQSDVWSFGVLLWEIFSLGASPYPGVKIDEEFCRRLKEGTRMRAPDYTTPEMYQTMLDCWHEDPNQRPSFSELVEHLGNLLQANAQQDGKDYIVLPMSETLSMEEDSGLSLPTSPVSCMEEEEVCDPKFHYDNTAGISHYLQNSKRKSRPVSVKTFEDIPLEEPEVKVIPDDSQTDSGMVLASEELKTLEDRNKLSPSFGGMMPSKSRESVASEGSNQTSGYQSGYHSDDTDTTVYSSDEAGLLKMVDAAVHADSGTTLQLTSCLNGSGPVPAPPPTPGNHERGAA", "assay": "VEGF-induced autophosphorylation of Flk-1 in COS cells", "assay_type": "cell-based", "set-up": "expressed in transfected cells; dose or concentration left out as unconfirmed", "conditions": "COS1 cells transiently expressing Flk-1, stimulated with VEGF"}, "[2]": {"biological_target": "T1, Flk-1", "assay": "[3H]thymidine incorporation (mitogenic response) in Flk-1-expressing NIH 3T3 cells", "assay_type": "cell-based", "set-up": "the full-length Flk-1 cDNA was cloned into the mammalian expression vector PCMV; expressed in transfected cells", "conditions": "3T3 Flk-1 cell line", "source_text": "The dominant-negative potential of Flk-1 TM was first examined by measuring its influence on the mitogenic response of Flk-1-expressing NIH 3T3 cells after superinfection with the Flk-1 TM virus."}, "[3]": {"biological_target": "T1, Flk-1", "assay": "125I-VEGF competition binding to COS-1 cells transiently expressing Flk-1", "set-up": "the full-length Flk-1 cDNA was cloned into the mammalian expression vector PCMV; expressed in transfected cells; host or cells: COS-1 (transient, CMV-promoter vector)", "conditions": "for competition with binding of 125I-VEGF: Flk-1 transfected COS-1 cells"}, "[4]": {"biological_target": "murine Flk-1 receptor (fetal liver kinase 1), full length, wild type, 180 kD (mouse) (UniProt P35918)", "sequence (P35918 other isoform, or with tags, fused parts or gaps limits assumed)": "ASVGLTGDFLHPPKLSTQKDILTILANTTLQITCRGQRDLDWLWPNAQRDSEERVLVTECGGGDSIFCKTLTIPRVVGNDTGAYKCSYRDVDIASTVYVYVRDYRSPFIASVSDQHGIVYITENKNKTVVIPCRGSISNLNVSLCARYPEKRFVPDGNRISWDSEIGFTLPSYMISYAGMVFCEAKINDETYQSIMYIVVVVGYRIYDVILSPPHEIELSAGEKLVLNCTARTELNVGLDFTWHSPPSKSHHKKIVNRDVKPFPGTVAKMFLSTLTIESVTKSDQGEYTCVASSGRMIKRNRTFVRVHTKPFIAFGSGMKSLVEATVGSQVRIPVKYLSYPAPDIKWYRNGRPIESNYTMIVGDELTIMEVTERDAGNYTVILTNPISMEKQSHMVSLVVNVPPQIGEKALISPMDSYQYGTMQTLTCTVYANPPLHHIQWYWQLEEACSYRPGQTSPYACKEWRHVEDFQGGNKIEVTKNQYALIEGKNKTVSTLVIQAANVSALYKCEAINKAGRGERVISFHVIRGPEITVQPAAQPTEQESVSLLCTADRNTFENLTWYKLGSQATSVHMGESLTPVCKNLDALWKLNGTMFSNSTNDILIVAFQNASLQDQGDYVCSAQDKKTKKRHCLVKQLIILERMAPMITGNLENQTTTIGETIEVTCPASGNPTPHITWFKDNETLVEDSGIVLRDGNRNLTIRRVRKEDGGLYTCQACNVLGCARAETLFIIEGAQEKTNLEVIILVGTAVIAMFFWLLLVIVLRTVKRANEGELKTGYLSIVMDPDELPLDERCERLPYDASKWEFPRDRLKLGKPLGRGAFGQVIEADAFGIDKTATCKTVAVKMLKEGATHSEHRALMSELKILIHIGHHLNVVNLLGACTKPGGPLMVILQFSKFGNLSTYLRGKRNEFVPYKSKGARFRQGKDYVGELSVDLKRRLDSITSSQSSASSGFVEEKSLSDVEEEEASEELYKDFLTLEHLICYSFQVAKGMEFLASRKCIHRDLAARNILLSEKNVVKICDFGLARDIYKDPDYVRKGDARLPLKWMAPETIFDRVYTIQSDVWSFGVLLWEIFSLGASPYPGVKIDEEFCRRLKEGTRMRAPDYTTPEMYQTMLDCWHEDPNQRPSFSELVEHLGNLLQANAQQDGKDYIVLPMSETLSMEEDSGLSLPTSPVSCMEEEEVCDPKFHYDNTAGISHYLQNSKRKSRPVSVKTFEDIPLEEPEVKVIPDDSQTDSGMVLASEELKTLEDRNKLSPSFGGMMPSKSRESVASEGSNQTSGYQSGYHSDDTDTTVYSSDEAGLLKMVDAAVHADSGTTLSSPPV", "assay": "cell-based or functional assay"}, "[5]": {"biological_target": "T1, Flk-1", "assay": "Cellular Flk-1 assay: VEGF-stimulated Flk-1 receptor autophosphorylation, antiphosphotyrosine Western blot", "assay_type": "cell-based", "set-up": "expressed in transfected cells; host or cells: NIH 3T3 (3T3 Flk-1 cell line)", "conditions": "test concentration 100 μM, FIG. 17, NIH3T3 cells expressing Flk-1", "experimental": "FIG. 17. Inhibition of VEGF stipulatory activity of Flk-1. Test compounds and VEGF were co-incubated on cells expressing the Flk-1 receptor. The level of tyrosine phosphorylation was measured in a Western blot format using an antiphosphotyrosine antibody. […] (Compounds A7, A8, and A10 were toxic to these cells resulting in cell death.).\nOrganic compounds that modulate Flk-1 receptor mediated signal transduction can be assayed in a cellular Flk-1 assay wherein modulation of Flk-1 receptor autophosphorylation is measured using an antiphosphotyrosine antibody. In the example shown below, the results are analyzed using a Western blot of electrophoresed cell lysates. Levels of phosphorylation as be measured by other techniques known in the art.\nNIH3T3 cells expressing high levels of Flk-1 were seeded in 12-well plates at 250,000 cells/well in DMEM+0.5% calf serum and incubated overnight at 37° C. plus or minus the test substance. […]\nFor the Western blot assay, forty microliters of saved supernatant per lane were loaded onto a 7.5% SDS-PAGE gel (10 lanes/gel, 1.5 mm thick) and run at 120 V until the dye reached the bottom of the gel. […] Protein bands were detected by soaking the membrane in ECL chemiluminescence system (Amersham Corp., prepared by mixing equal volumes of reagent 1 and 2) for 1 minute and then exposing the film for about 1-10 minutes."}, "[6]": {"biological_target": "T2, Flk-1 TM, truncated transdominant-negative Flk-1 receptor mutant (amino acids 1 through 806), 130 kD (mouse, UniProt P35918 20-806)", "T2 construct": "Lacks the 561 C-terminal amino acids of the intracellular kinase domain; keeps the transmembrane domain and 23 residues of the cytoplasmic domain; A BglII/HpaI linker with a stop codon (5' GTC ATG GAT CTT CGT TAA 3') may add or change a few C-terminal residues; Expressed in cells (COS, NIH 3T3); also called truncated Flk-1 receptor; pLXSN Flk-1 TM cl.1", "T2 sequence (P35918 other isoform, or with tags, fused parts or gaps mutant)": "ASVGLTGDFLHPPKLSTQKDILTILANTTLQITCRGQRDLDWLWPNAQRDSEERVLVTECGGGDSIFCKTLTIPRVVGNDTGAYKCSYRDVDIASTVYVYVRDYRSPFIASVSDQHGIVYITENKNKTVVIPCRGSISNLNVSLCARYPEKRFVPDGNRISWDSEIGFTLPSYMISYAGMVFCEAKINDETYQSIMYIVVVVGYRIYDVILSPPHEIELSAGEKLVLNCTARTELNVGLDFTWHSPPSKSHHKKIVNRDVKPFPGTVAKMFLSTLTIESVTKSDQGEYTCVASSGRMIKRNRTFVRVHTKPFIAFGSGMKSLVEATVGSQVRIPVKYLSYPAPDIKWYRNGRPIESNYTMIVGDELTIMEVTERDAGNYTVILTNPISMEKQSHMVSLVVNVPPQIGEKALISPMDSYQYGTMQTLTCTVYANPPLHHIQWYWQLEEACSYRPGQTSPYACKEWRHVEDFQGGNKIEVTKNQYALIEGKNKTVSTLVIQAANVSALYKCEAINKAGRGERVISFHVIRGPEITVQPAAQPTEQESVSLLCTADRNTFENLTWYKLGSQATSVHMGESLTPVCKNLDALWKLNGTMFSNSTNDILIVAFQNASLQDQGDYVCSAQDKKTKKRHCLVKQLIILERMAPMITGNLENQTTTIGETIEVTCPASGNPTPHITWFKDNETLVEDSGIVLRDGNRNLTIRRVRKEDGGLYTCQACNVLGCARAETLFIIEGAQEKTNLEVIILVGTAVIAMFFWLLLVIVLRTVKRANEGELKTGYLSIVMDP", "assay": "^125I-VEGF binding to 3T3 Flk-1/Flk-1 TM cells against the parental 3T3 Flk-1 cells"}, "[7]": {"biological_target": "T3, murine Flk-1 receptor (fetal liver kinase 1), full length, wild type, 180 kD (mouse, UniProt P35918 20-1345)", "T3 construct": "Full-length Flk-1 cDNA in pCMV, transiently expressed in COS-1 cells; also stably expressed in NIH 3T3 cells; also called Flk-1 RTK; wild type Flk-1", "T3 sequence (P35918 other isoform, or with tags, fused parts or gaps limits assumed)": "as the sequence (P35918 other isoform, or with tags, fused parts or gaps limits assumed) above", "assay": "competition binding of unlabeled VEGF against 10 pM ^125I-VEGF on COS-1 cells expressing Flk-1, analysis by Munson and Rodbard", "experimental": "FIGS. 9A and 9B. Flk-1 is a receptor for VEGF. […] The cells were lysed, Flk-1 receptor immunoprecipitated, and analyzed by polyacrylamide gel electrophoresis followed by autoradiography. Molecular size markers are indicated in kilodaltons. […] COS cells transiently expressing Flk-1 were removed from the plate and resuspended in binding medium (DMEM, 25 mM Hepes, 0.15% gelatin). […] The cells were washed twice with PBS/0.1% BSA and counted in a gamma counter.\nLigand binding experiments were performed as described previously (Schumacher, R. et al., 1991, J. Biol. Chem. 266: 19288-19295), COS-1 cells were grown in a 15-cm culture dish in DMEM for 48 h after transfection. Cells were then washed carefully with PBS and incubated with 5 ml of 25 mM EDTA in PBS for 10 min. Cells were then removed from the plate, washed once with binding buffer (DMEM, 25 mM HEPES, pH 7.5, 0.15% gelatin) and resuspended in 5 ml of binding buffer to determine the cell number. […] Data obtained were analyzed by the method of Munson, P. J. and Rodbard, D. (1980 Anal. Biochem. 107:220-235)."}},
  "note": "Entries after “also recorded” stand apart in the source; their conditions may differ.",
  "data": [
    {"molecule": "vascular endothelial growth factor [VEGF]", "values": [
      {"measurement": "tyrosine phosphorylation of the 180 kD Flk-1 receptor", "setting": "[1]", "value": "significant induction"},
      {"measurement": "EC50", "setting": "[2]", "value": "~0.1", "unit": "nM"},
      {"measurement": "concentration giving maximal stimulation of [3H] thymidine incorporation", "setting": "[2]", "value": 500, "unit": "pM"},
      {"measurement": "Kd", "setting": "[3]; Flk-1 expressing COS-1 cells, 125I-VEGF, 15° C., 90 min", "value": "~0.1", "unit": "nM"},
      {"measurement": "competition with binding of 125I-VEGF", "setting": "[3]", "value": "competed"}
    ]},
    {"molecule": "PDGF-BB: growth factor used as specificity control in 125I-VEGF competition binding [reference compound]", "values": [
      {"measurement": "competition with binding of 125I-VEGF", "setting": "[3]", "value": "did not compete"}
    ]},
    {"molecule": "VEGF (preparation not specified) used for stimulation of cells (ligand)", "values": [
      {"measurement": "[^3H] thymidine incorporation in the 3T3 Flk-1 cell line, EC50", "setting": "[4]", "value": 0.1, "unit": "nM"},
      {"measurement": "[^3H] thymidine incorporation in the 3T3 Flk-1 cell line, concentration of maximal stimulation", "setting": "[4]", "value": 500, "unit": "pM"}
    ]},
    {"molecule": "c1ccc(-c2cnc3cc4ccccc4cc3n2)cc1", "note": "[Compound A14]", "values": [
      {"measurement": "inhibition of VEGF-stimulated Flk-1 receptor phosphorylation", "setting": "[5]", "value": "almost completely; also recorded: completely inhibited"}
    ]},
    {"molecule": "^125I-labeled recombinant human VEGF (ligand, UniProt P15692-4 27-191, looked up, radioiodinated (^125I) by the procedure of Hunter and Greenwood; positions not given, also called iodinated VEGF) APMAEGGGQNHHEVVKFMDVYQRSYCHPIETLVDIFQEYPDEIEYIFKPSCVPLMRCGGCCNDEGLECVPTEESNITMQIMRIKPHQGQHIGEMSFLQHNKCECRPKKDRARQENPCGPCSERRKHLFVQDPQTCKCSCKNTDSRCKARQLELNERTCRCDKPRR", "values": [
      {"measurement": "fold increase of cell surface receptors against the parental 3T3 Flk-1 line", "setting": "[6]", "value": 6, "unit": "fold"}
    ]},
    {"molecule": "unlabeled VEGF (164 amino acid form), partially purified from conditioned media of COS-1 cells transiently expressing VEGF (ligand, UniProt Q00731-2 27-190, looked up, Partially purified on heparin columns; also called unlabeled ligand) APTTEGEQKSHEVIKFMDVYQRSYCRPIETLVDIFQEYPDEIEYIFKPSCVPLMRCAGCCNDEALECVPTSESNITMQIMRIKPHQSQHIGEMSFLQHSRCECRPKKDRTKPENHCEPCSERRKHLFVQDPQTCKCSCKNTDSRCKARQLELNERTCRCDKPRR", "values": [
      {"measurement": "Kd", "setting": "[7]", "value": "~0.1", "unit": "nM"}
    ]}
  ]
}
